Measured values published in patent US20040152772A1, “1-butyric acid derivatives and the use thereof” (priority 2001, published 2004).

What was measured:
[1] = system: Novikoff hepatoma cells; assay: Proliferation of Novikoff hepatoma cells, cell count per flask after four days of cultivation; format: cell-based; settings: FIGS. 1 and 2
Source text: The Novikoff hepatoma cells that were used derived from the Tumor Bank of the German Cancer Research Center, Heidelberg (Cancer Research 1951, 17, 1010). 100,000 cells were spread out per 25 cm^2 of cultivation surface on each occasion. After having been dissolved in a solvent, such as e.g. water, diluted ethanol, dimethyl sulfoxide or a similar material that is suitable for use in cell cultures, the substance in accordance with the invention according to Example 1, or L-cycloserine, or dehydrothreonine was added to the culture medium in increasing concentrations, e.g. L-cycloserine (Compound 16) or dehydrothreonine (Compound 2) in the range of concentrations from 80 μM-5000 μM; and carbomethoxypropionyl cyanide (Compound 13) in the range of concentrations from 100 μM-300 μM. The cell count per flask was enumerated after four days of cultivation.

[2] = system: Novikoff cells; assay: Effect on the metabolism (flow of glycolysis) of Novikoff cells; format: cell-based; settings: FIG. 3

Structure (SMILES) | inhibition of proliferation (cell count per flask) in comparison to the control sample ([1]; concentrations 80 μM-5000 μM) | inhibition of proliferation (cell count per flask) in comparison to the control sample ([1]; concentrations 100 μM-300 μM) | flow of glycolysis [2]
N[C@H]1CONC1=O [Compound 16, L-cycloserine] | dose-dependent inhibition of proliferation | – | –
C/C(O)=C(/N)C(=O)O [Compound 2, dehydrothreonine] | dose-dependent inhibition of proliferation | – | –
COC(=O)CCC(=O)C#N [Compound 9, methyl ester of 4-cyano, 4-oxo-butanoic acid] | – | dose-dependent inhibition of proliferation | massively inhibited the flow of glycolysis
